In patent US20110230472A1, “RING-FUSED AZOLE DERIVATIVE HAVING PI3K-INHIBITING ACTIVITY” (Shionogi & Co., Ltd., priority 2008, published 2011) one finds inhibition data, which are given here for 62 compounds.

Sequence of PI-3 kinase γ (P48736 whole entry): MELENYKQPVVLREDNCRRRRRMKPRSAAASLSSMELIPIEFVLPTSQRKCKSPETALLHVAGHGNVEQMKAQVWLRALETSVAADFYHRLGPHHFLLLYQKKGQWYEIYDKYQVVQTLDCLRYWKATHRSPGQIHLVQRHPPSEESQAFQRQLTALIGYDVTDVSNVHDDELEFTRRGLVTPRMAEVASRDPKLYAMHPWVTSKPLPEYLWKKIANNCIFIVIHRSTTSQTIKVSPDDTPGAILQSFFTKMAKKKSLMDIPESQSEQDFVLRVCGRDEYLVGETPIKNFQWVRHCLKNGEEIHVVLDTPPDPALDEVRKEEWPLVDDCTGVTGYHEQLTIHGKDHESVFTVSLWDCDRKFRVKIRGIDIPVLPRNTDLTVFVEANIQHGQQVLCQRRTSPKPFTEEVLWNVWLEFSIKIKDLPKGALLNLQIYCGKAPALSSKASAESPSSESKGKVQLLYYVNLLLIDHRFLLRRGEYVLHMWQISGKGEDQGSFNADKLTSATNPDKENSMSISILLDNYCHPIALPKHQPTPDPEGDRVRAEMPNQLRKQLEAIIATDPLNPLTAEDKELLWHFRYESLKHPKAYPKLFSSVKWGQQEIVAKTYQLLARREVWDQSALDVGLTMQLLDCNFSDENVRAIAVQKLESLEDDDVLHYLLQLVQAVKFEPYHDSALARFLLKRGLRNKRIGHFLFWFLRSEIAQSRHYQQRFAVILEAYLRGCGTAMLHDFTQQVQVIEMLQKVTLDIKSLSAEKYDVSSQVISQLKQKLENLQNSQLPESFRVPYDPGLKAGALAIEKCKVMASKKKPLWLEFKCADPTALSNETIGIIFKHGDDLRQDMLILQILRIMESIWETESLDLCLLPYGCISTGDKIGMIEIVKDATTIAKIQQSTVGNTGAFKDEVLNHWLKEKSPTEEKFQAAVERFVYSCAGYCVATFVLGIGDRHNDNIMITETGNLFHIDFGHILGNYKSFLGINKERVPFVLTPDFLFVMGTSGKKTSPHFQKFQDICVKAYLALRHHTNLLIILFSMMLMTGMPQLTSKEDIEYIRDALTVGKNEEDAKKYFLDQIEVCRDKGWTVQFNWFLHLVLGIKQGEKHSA

In one experiment the target is PI-3 kinase γ (Homo sapiens, UniProt P48736). Nature of the experiment: PI3Kγ inhibitory activity, PI3-kinase HTRF assay (inhibition ratio). Conditions: 0.5 h; PI3Kγ, compound at 10 μM. It counts as biochemical. The method, then: The PI3Kγ inhibitory activity of a compound was evaluated using PI3-kinase HTRF™ assay (Millipore) according to the following procedure:
To each well of a testing plate, 5 μL of a compound solution containing 10% DMSO (200 μmol/L or 40 μmol/L as the concentration of the compound), 5 μL of a substrate solution (40 μmol/L phosphatidylinositol (4,5)-bisphosphate, 20 mmol/L MgCl2, 10 mmol/L DTT), and 5 μL of a enzyme solution (80 μg/mL PI-3 kinase γ, 10 mmol/L MgCl2, 5 mmol/L DTT) were added, and then allowed to stand for 10 minutes.
Then, 5 μL of a reaction solution (40 μmol/L ATP, 10 mmol/L MgCl2, 5 mmol/L DTT) was added thereto. After reacting for 30 minutes at room temperature, 5 μL of a solution containing EDTA and biotinylated phosphatidylinositol (3,4,5)-triphosphate were added to quench the reaction.
5 μL of a detection reagent containing a europium-labeled anti-GST antibody, the GST-tagged PH domain, and allophycocyanin-labeled streptavidin was added thereto. After 18 hours, HTRF (excitation wavelength: 330 nm, measured wavelengths: 620 nm and 665 nm) was measured.
HTRF ratio was defined as the value obtained by dividing the amount of fluorescence obtained at the measured wavelength 665 nm by the amount of fluorescence obtained at 620 nm. The HTRF ratio in the absence of a compound was defined as 100% activity and the HTRF ratio in the absence of PI-3 kinase γ was defined as 0% activity to calculate an inhibition ratio which was defined as the PI3Kγ inhibitory activity of a compound at 50 μmol/L or 10 μmol/L.
(In general: Time-resolved FRET reads energy transfer from a long-lived donor to a nearby acceptor.)
Broadly, the inhibition is the percentage by which the read-out fell short of the control. For the compound `COc1cccc(CC(=O)Nc2nc3c(s2)CN(c2cc(OC)nc(OC)n2)CC3)c1` [Compound I-251], the inhibition at 10 µM came out at 88%.

Turning to `COc1cc(N2CCc3nc(NC(=O)NCC(=O)OC(C)(C)C)sc3C2)nc(OC)n1` [Compound I-252], the inhibition at 10 µM was 88%.

Turning to `COc1cc(N2CCc3nc(NC(=O)NCCCN4CCCC4=O)sc3C2)nc(OC)n1` [Compound I-253], the inhibition at 10 µM was 82%.

For `CNC(=O)Nc1cc2n(n1)CCN2c1ccc(C(=O)NC)s1` [Compound I-256], the inhibition at 10 µM was found to be 78%.

In the case of `COc1cc(N2CCc3nc(NC(=O)NCCCC(=O)OC(C)(C)C)sc3C2)nc(OC)n1` [Compound I-261], the inhibition at 10 µM came to 90%.

Regarding `CNC(=O)Nc1nc2c(s1)CN(c1cc(Oc3ccccc3)nc(OCCCO)n1)CC2` [Compound I-263], the inhibition at 10 µM was at least 95%.

Regarding `COc1cc(N2CCc3nc(NC(=O)CC(=O)OC(C)(C)C)sc3C2)nc(OC)n1` [Compound I-264], the inhibition at 10 µM came to 89%.

As to `COc1cc(N2CCc3nc(NC(=O)Cc4cc(OC)c(OC)c(OC)c4)sc3C2)nc(OC)n1` [Compound I-268], the inhibition at 10 µM is at least 95%.

As for `COc1cc(N2CCc3nc(NC(=O)Cc4cccc(C(F)(F)F)c4)sc3C2)nc(OC)n1` [Compound I-269], the inhibition at 10 µM is at least 95%.

Take `COc1cc(N2CCc3nc(NC(=O)NCCC(=O)N(C)C(C)(C)C)sc3C2)nc(OC)n1` [Compound I-270]: the inhibition at 10 µM is at least 95%.

In the case of `COc1cc(N2CCc3nc(NC(=O)NCCC(=O)N4[C@H](C)CCC[C@@H]4C)sc3C2)nc(OC)n1` [Compound I-271], the inhibition at 10 µM is at least 95%.

On to `COc1cc(N2CCc3nc(NC(=O)NCCC(=O)N(C(C)C)C(C)C)sc3C2)nc(OC)n1` [Compound I-272], for which the inhibition at 10 µM is at least 95%.

Consider `COc1cc(N2CCc3nc(NC(=O)NCCC(=O)Nc4ccccc4)sc3C2)nc(OC)n1` [Compound I-273], for which the inhibition at 10 µM is at least 95%.

As to `COc1cc(N2CCc3nc(NC(=O)NCCC(=O)N(C)c4ccccc4)sc3C2)nc(OC)n1` [Compound I-274], the inhibition at 10 µM was at least 95%.

In the case of `COc1cc(N2CCc3nc(NC(=O)NCCC(=O)N4CCC[C@H]4C(=O)OC(C)(C)C)sc3C2)nc(OC)n1` [Compound I-275], the inhibition at 10 µM was at least 95%.

In the case of `COc1cc(N2CCc3nc(NC(=O)N[C@@H](CC(=O)OC(C)(C)C)C(=O)O)sc3C2)nc(OC)n1` [Compound I-280], the inhibition at 10 µM was at least 95%.

With `COc1cc(N2CCc3nc(NC(=O)CCNC(=O)OC(C)(C)C)sc3C2)nc(OC)n1` [Compound I-281], the inhibition at 10 µM is at least 95%.

On to `COc1cc(C(=O)Nc2nc3c(s2)CN(c2cc(OC)nc(OC)n2)CC3)on1` [Compound I-282], for which the inhibition at 10 µM was 86%.

As for `CC(=O)Nc1cc2n(n1)CCN2c1ccc2c(c1)CCC2=O` [Compound I-283], the inhibition at 10 µM is at least 95%.

Consider `COc1cc(N2CCc3nc(NC(=O)NCC(=O)NCC(C)(C)C)sc3C2)nc(OC)n1` [Compound I-285], for which the inhibition at 10 µM was at least 95%.

Consider `COc1cc(N2CCc3nc(NC(=O)NCCCOC(C)(C)C)sc3C2)nc(OC)n1` [Compound I-288], for which the inhibition at 10 µM was at least 95%.

The same experiment, now with this note: 0.5 h; PI3Kγ, compound at 50 μM.
Consider `COc1cc(N2CCc3nc(NC(=O)c4cnco4)sc3C2)nc(OC)n1` [Compound I-204], for which the inhibition at 50 µM was 88%.

With `COc1cc(N2CCc3nc(NC(=O)NCCC(=O)N4CCOCC4)sc3C2)nc(OC)n1` [Compound I-207], the inhibition at 50 µM was at least 95%.

Regarding `CNC(=O)Nc1cc2n(n1)CCN2c1cc(C(=O)N2CCOCC2)cc(-c2cnc(N)nc2)c1` [Compound I-209], the inhibition at 50 µM was at least 95%.

In the case of `CNC(=O)Nc1cc2n(n1)CCN2c1cc(C(=O)N2CCOCC2)cc(-c2ccc(N)cc2)c1` [Compound I-210], the inhibition at 50 µM is at least 95%.

Consider `CCOC(=O)c1ccc(N2CCn3nc(NC(=O)NC)cc32)s1` [Compound I-211], for which the inhibition at 50 µM worked out at 89%.

For `CC(C)(C)OC(=O)CCNC(=O)Nc1cc2n(n1)CCN2c1cccc(Cl)c1` [Compound I-212], the inhibition at 50 µM is 80%.

In the case of `O=C(O)CCNC(=O)Nc1cc2n(n1)CCN2c1cccc(Cl)c1` [Compound I-215], the inhibition at 50 µM was at least 95%.

As to `CNC(=O)Nc1cc2n(n1)CCN2c1ccc2c(c1)C(=O)CC2` [Compound I-216], the inhibition at 50 µM was at least 95%.

Regarding `O=C(NCCC(=O)N1CCOCC1)Nc1cc2n(n1)CCN2c1cccc(Cl)c1` [Compound I-218], the inhibition at 50 µM was at least 95%.

For the compound `O=C(Nc1cc2n(n1)CCN2c1cccc(Cl)c1)c1ccccc1` [Compound I-219], the inhibition at 50 µM was at least 95%.

With `CNC(=O)Nc1cc2n(n1)CCN2c1cc(C(=O)N2CCOCC2)cc(-c2cccc(O)c2)c1` [Compound I-220], the inhibition at 50 µM is at least 95%.

Consider `O=C(Nc1cc2n(n1)CCN2c1cccc(Cl)c1)c1cnco1` [Compound I-221], for which the inhibition at 50 µM is at least 95%.

Take `CNC(=O)Nc1cc2n(n1)CCN2c1cc(Oc2ccccc2)cc(C(=O)N2CCOCC2)c1` [Compound I-223]: the inhibition at 50 µM was found to be 91%.

As to `CNC(=O)Nc1cc2n(n1)CCN2c1cc(/C=C/c2ccccc2)cc(C(=O)N2CCOCC2)c1` [Compound I-225], the inhibition at 50 µM came out at 93%.

For `CNC(=O)Nc1cc2n(n1)CCN2c1ccc(C(=O)N(C)C)s1` [Compound I-226], the inhibition at 50 µM is at least 95%.

Take `CNC(=O)Nc1cc2n(n1)CCN2c1ccc2c(c1)NC(=O)CC2` [Compound I-227]: the inhibition at 50 µM was at least 95%.

`CNC(=O)Nc1cc2n(n1)CCN2c1cc(C#Cc2ccccc2)cc(C(=O)N2CCOCC2)c1` [Compound I-228]: the inhibition at 50 µM came out at 85%.

On to `CNC(=O)Nc1cc2n(n1)CCN2c1cc(C(=O)N2CCOCC2)cc(C2=CCCCC2)c1` [Compound I-231], for which the inhibition at 50 µM was at least 95%.

Regarding `CNC(=O)Nc1nc2c(s1)CN(c1cc(Oc3ccccc3)nc(OCCCOCc3ccccc3)n1)CC2` [Compound I-232], the inhibition at 50 µM came to 76%.

Regarding `CNC(=O)Nc1cc2n(n1)CCN2c1cc(C#CCOC)cc(C(=O)N2CCOCC2)c1` [Compound I-233], the inhibition at 50 µM worked out at 84%.

For the compound `O=C(O)CC(=O)Nc1cc2n(n1)CCN2c1cccc(Cl)c1` [Compound I-235], the inhibition at 50 µM was 89%.

Turning to `CC(=O)N1CCC(C(=O)Nc2cc3n(n2)CCN3c2cccc(Cl)c2)CC1` [Compound I-236], the inhibition at 50 µM is 88%.

With `O=C(Nc1cc2n(n1)CCN2c1cccc(Cl)c1)C1CCCC1` [Compound I-237], the inhibition at 50 µM was determined as 84%.

For the compound `COc1cccc(C(=O)Nc2cc3n(n2)CCN3c2cccc(Cl)c2)c1` [Compound I-239], the inhibition at 50 µM is 92%.

Take `O=C(Nc1cc2n(n1)CCN2c1cccc(Cl)c1)c1cccc(O)c1` [Compound I-240]: the inhibition at 50 µM amounted to 91%.

Regarding `O=C(Nc1cc2n(n1)CCN2c1cccc(Cl)c1)c1ccc2nccn2c1` [Compound I-241], the inhibition at 50 µM amounted to 84%.

As for `O=C(Cn1ccnc1)Nc1cc2n(n1)CCN2c1cccc(Cl)c1` [Compound I-242], the inhibition at 50 µM is at least 95%.

Turning to `CS(=O)(=O)Nc1ccc(CC(=O)Nc2cc3n(n2)CCN3c2cccc(Cl)c2)cc1` [Compound I-243], the inhibition at 50 µM worked out at 81%.

Consider `CC(=O)NCCC(=O)Nc1cc2n(n1)CCN2c1cccc(Cl)c1` [Compound I-244], for which the inhibition at 50 µM turned out to be 87%.

Turning to `O=C(Nc1cc2n(n1)CCN2c1cccc(Cl)c1)c1nccs1` [Compound I-245], the inhibition at 50 µM is 76%.

As for `O=C(Nc1cc2n(n1)CCN2c1cccc(Cl)c1)c1ccn[nH]1` [Compound I-246], the inhibition at 50 µM stood at 90%.

Turning to `O=C(O)c1cccc(C(=O)Nc2cc3n(n2)CCN3c2cccc(Cl)c2)c1` [Compound I-247], the inhibition at 50 µM was determined as 95%.

For the compound `NC(=O)CCC(=O)Nc1cc2n(n1)CCN2c1cccc(Cl)c1` [Compound I-249], the inhibition at 50 µM is at least 95%.

With `CNC(=O)Nc1cc2n(n1)CCN2c1cc(C#CC2CCN(C(=O)OC(C)(C)C)CC2)cc(C(=O)N2CCOCC2)c1` [Compound I-250], the inhibition at 50 µM is at least 95%.

Take `CNC(=O)Nc1cc2n(n1)CCN2c1cc(C#Cc2cccnc2)cc(C(=O)N2CCOCC2)c1` [Compound I-254]: the inhibition at 50 µM was determined as 81%.

Turning to `COc1cc(N2CCc3nc(NC(=O)[C@H](O)c4ccccc4)sc3C2)nc(OC)n1` [Compound I-257], the inhibition at 50 µM stood at 83%.

As for `COc1cc(N2CCc3nc(NC(=O)[C@@H](O)c4ccccc4)sc3C2)nc(OC)n1` [Compound I-258], the inhibition at 50 µM is 92%.

As for `COc1cc(N2CCc3nc(NC(=O)C(=O)c4ccccc4)sc3C2)nc(OC)n1` [Compound I-259], the inhibition at 50 µM was determined as 89%.

For the compound `CNC(=O)Nc1cc2n(n1)CCN2c1cc(CCc2ccccc2)cc(C(=O)N2CCOCC2)c1` [Compound I-260], the inhibition at 50 µM stood at 93%.

On to `CNC(=O)Nc1cc2n(n1)CCN2c1cc(C(=O)N2CCOCC2)cc(C2CCCCC2)c1` [Compound I-267], for which the inhibition at 50 µM was at least 95%.

As for `COc1cccc(N2CCn3nc(N)cc32)c1` [Compound I-286], the inhibition at 50 µM was 77%.
